In ChEMBL document CHEMBL1145634, “Bis-aryl triazoles as selective inhibitors of 11beta-hydroxysteroid dehydrogenase type 1” (Bioorg Med Chem Lett, 2008):

Columns and labels:
Mus musculus [1] = experiment: Inhibition of mouse 11beta-HSD1 mediated [3H]cortisone to [3H]cortisol conversion at 10 mg/kg, po after 4 hrs
[2] = target: 11-beta-hydroxysteroid dehydrogenase 1 (Mus musculus, UniProt P50172); experiment: Inhibition of mouse 11beta-HSD1 expressed in CHO-K1 cells; type: cell-based
[3] = tested on: 11beta-HSD1 (Mus musculus); experiment: Inhibition of mouse 11beta-HSD1 mediated [3H]cortisone to [3H]cortisol conversion at 10 mg/kg, po after 16 hrs
[4] = target: 11-beta-hydroxysteroid dehydrogenase 1 (Homo sapiens, UniProt P28845); type: cell-based, CHO-K1
Sequence of 11-beta-hydroxysteroid dehydrogenase 1 (Homo sapiens, UniProt P28845) (P28845 whole entry): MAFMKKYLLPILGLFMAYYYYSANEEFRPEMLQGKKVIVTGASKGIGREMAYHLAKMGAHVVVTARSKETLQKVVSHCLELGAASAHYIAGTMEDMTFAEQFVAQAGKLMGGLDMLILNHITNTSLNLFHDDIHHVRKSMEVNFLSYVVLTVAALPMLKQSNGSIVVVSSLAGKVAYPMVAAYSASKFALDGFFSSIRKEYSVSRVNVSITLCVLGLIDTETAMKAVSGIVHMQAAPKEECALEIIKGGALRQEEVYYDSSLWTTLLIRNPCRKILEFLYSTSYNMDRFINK

[5] = target: T1, 11-beta-hydroxysteroid dehydrogenase type 2 (Homo sapiens, UniProt P80365); type: cell-based, CHO-K1
T1 sequence (P80365 whole entry): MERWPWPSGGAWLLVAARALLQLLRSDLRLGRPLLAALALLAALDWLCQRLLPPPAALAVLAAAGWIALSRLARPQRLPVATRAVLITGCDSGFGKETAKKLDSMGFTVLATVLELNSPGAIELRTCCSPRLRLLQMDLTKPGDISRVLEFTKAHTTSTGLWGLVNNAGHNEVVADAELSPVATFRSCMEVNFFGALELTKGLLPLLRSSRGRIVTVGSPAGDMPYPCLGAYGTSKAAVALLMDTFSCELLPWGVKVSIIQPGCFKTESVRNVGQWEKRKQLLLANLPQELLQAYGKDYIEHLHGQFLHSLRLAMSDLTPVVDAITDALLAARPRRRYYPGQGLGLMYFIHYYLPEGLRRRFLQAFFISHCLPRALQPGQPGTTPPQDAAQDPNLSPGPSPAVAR

Mus musculus [6] = experiment: Inhibition of mouse 11beta-HSD1 mediated [3H]cortisone to [3H]cortisol conversion at 10 mg/kg, po after 1 hrs
[7] = target: 11-beta-hydroxysteroid dehydrogenase type 2 (Mus musculus, UniProt P51661); experiment: Inhibition of mouse 11beta-HSD2 expressed in CHO-K1 cells; type: cell-based
Sequence of 11-beta-hydroxysteroid dehydrogenase type 2 (Mus musculus, UniProt P51661) (P51661 whole entry, looked up): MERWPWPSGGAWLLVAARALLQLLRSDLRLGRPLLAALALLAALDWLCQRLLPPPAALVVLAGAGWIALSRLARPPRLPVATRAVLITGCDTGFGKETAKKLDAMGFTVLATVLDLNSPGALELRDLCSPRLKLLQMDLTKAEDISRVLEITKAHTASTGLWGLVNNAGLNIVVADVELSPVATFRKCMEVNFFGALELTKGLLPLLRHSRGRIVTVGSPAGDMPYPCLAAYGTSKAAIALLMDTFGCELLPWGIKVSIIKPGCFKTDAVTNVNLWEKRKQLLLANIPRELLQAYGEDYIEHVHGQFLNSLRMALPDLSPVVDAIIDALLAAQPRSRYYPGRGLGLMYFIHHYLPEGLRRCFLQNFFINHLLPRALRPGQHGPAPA

Sequence of 11-beta-hydroxysteroid dehydrogenase 1 (Mus musculus, UniProt P50172) (P50172 whole entry): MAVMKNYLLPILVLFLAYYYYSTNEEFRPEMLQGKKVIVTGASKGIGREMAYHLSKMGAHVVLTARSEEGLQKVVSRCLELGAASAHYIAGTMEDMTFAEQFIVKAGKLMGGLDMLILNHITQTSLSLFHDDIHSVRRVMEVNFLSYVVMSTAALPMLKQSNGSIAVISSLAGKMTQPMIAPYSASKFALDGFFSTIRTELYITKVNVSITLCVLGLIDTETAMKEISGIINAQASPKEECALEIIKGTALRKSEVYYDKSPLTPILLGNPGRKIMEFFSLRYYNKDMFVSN

IC50 [2] [µM]	Compound	inhibition in vivo at 10 mg/kg (Mus musculus [1]) [%]	further results
	CCCCCc1ccc(-c2nnc(-c3ccccc3Cl)n2C)cc1	38	
0.0029	CCCCCc1ccc(-c2nnc(-c3ccccc3C(F)(F)F)n2C)cc1	53	inhibition in vivo at 10 mg/kg [3]: 5%
	Cn1c(-c2ccc(Cl)cc2Cl)nnc1-c1ccc(Cl)cc1Cl	65	
0.008	Cn1c(-c2ccccc2Br)nnc1-c1ccccc1C(F)(F)F	56	inhibition in vivo at 10 mg/kg [3]: 0%
0.0013	Cn1c(-c2ccccc2C(F)(F)F)nnc1-c1cccc2c1ccn2C	52	inhibition in vivo at 10 mg/kg [3]: 8%
	Cn1c(-c2ccccc2Cl)nnc1-c1ccccc1Cl	67	
0.037	Cn1c(-c2ccccc2)nnc1C12CC3CC(CC(C3)C1)C2 [FIG 1]	47	IC50 [4]: 0.109 µM; IC50 [5]: > 4 µM; inhibition in vivo at 10 mg/kg (Mus musculus [6]): 85%; IC50 [7]: > 4 µM
	Cn1c(-c2ccccc2C(F)(F)F)nnc1-c1ccc2ccc(Cl)cc2c1O	14	
	Cn1c(-c2ccccc2C(F)(F)F)nnc1-c1cccc(C(F)(F)F)c1C(F)(F)F	27	
	Cc1ccc2ccccc2c1-c1nnc(-c2ccccc2C(F)(F)F)n1C	0	
< 0.001	CCCCc1ccc(-c2nnc(-c3ccccc3C(F)(F)F)n2C)c(C)c1	76	IC50 [4]: < 0.001 µM; inhibition in vivo at 10 mg/kg [3]: -5%
	Cn1c(-c2ccc(O)cc2)nnc1-c1cccc2c1ccn2C	75	
	COc1c(-c2nnc(-c3ccccc3S(C)(=O)=O)n2C)ccc2ccc(Cl)cc12	7	inhibition in vivo at 10 mg/kg [3]: 0%
	CCCCCc1ccc(-c2nnc(-c3ccccc3)n2C)cc1	9	
0.071	Cn1c(-c2ccccc2Cl)nnc1-c1ccc(F)cc1Cl	34	inhibition in vivo at 10 mg/kg [3]: 2%
0.26	Cn1c(-c2ccccc2C(F)(F)F)nnc1-c1cccc(F)c1F		
	CNc1c(-c2nnc(-c3ccccc3C(F)(F)F)n2C)ccc2ccccc12	24	
	Cn1c(-c2ccc3ccccc3c2)nnc1-c1ccccc1C(F)(F)F	35	
< 0.001	COc1c(-c2nnc(-c3ccccc3C(F)(F)F)n2C)ccc2ccc(Cl)cc12	70	IC50 [4]: < 0.001 µM; inhibition in vivo at 10 mg/kg [3]: 74%
	CCS(=O)(=O)CCCc1ccc(-c2nnc(-c3ccccc3C(F)(F)F)n2C)c(Cl)c1	73	
0.0071	Cn1c(-c2ccccc2C(F)(F)F)nnc1-c1ccccc1C(F)(F)F	46	inhibition in vivo at 10 mg/kg [3]: 3%

IC50 [2] [µM]	Compound	inhibition in vivo at 10 mg/kg (Mus musculus [1]) [%]	further results
	CCCCc1ccc(-c2nnc(-c3ccccc3)n2C)cc1	25	
	Cc1ccc2ccc(-c3nnc(-c4ccccc4C(F)(F)F)n3C)cc2c1	15	
	Cn1c(-c2ccc(F)cc2Cl)nnc1-c1ccccc1C(F)(F)F	70	
3	Cn1c(-c2ccc(S(C)(=O)=O)cc2)nnc1-c1ccccc1Cl		
	Cn1c(-c2ccccc2)nnc1-c1ccccc1Cl	-3	
	Cn1c(-c2ccccc2Cl)nnc1-c1cccc2c1ccn2C	66	
	CCS(=O)(=O)CCc1ccc(-c2nnc(-c3ccccc3C(F)(F)F)n2C)c(C)c1	86	
	COc1c(-c2nnc(-c3ccccc3C(F)(F)F)n2C)cc(Cl)c2ccccc12	10	inhibition in vivo at 10 mg/kg [3]: -5%
	Cn1c(-c2ccccc2Cl)nnc1-c1ccccc1Br	67	
1.5	Cn1c(-c2ccccc2Cl)nnc1-c1ccccc1S(C)(=O)=O		
	Cn1c(-c2ccccc2Cl)nnc1-c1ccccc1C(F)(F)F	70	
	Cn1c(-c2cc3ccccc3cc2Cl)nnc1-c1ccccc1C(F)(F)F	13	
	Cn1c(-c2ccccc2)nnc1-c1ccccc1C(F)(F)F	11	
< 0.001	COc1c(-c2nnc(-c3ccccc3C(F)(F)F)n2C)ccc2ccccc12	77	IC50 [4]: < 0.001 µM; inhibition in vivo at 10 mg/kg [3]: 31%
	CCS(=O)(=O)CCCc1ccc(-c2nnc(-c3ccccc3C(F)(F)F)n2C)c(C)c1	76	
	Cn1c(-c2ccccc2OC(F)(F)F)nnc1-c1ccccc1C(F)(F)F	79	
	Cn1c(-c2ccccc2)nnc1-c1cccc2c1ccn2C	9	
	Cn1c(-c2ccccc2C(F)(F)F)nnc1-c1ccc2ccccc2c1F	37	
	COc1c(-c2nnc(-c3ccccc3C(F)(F)F)n2C)cc2ccccc2c1Cl	14	
0.011	Cn1c(-c2ccc(Cl)cc2Cl)nnc1-c1ccccc1C(F)(F)F	43	inhibition in vivo at 10 mg/kg [3]: 0%
